From US7105654B1, “Ethylene receptor gene from Glycine max and its use” (Monsanto Technology LLC, priority 2002, dated 2006)

System: soybean (Glycine max) seedlings
Test: ACC insensitivity assay (hypocotyl length of dark-grown seedlings)
Format: in vivo
Details: nontransformed soybean variety Asgrow A4922, grown in the dark; without ACC greater than 70 millimeters
Procedure: FIG. 4. R1 seeds from pMON47103, pMON47104, and pMON47108 were screened by an ACC insensitivity assay. […] Hypocotyl length was measured after six days and the average value presented.
Seeds were germinated in growth pouches (Mega International, Minneapolis, Minn.) containing 25 milliliters of 25 micromolar 1-aminocyclopropane-1-carboxylic acid (ACC) (Sigma Chemical Company) or in tissue culture boxes containing agar, water, and 20 micromolar ACC. Seedlings were kept in the dark for seven days. Growth of hypocotyl and root were scored in comparison to seedlings grown in water with all other conditions identical. An alternative protocol was used to measure growth in a solid matrix. Vermiculite was placed in a 4″×4″ plastic pot to ½″ below the rim. Twelve seeds were placed in each pot beneath the surface of the vermiculite. A solution of 500 micromolar ACC in distilled water was used to saturate the vermiculite. The pots were placed in a tray with additional solution to ensure a supply during incubation. The plants were incubated in a dark ventilated cabinet at room temperature for six days. On the sixth day, seedlings were removed from the vermiculite and rinsed. The hypocotyl length (from first lateral root to the bend of the apical hook) was measured and compared against wild type plants grown in the same environmental condition. […]

SMILES: NC1(C(=O)O)CC1 [ACC, 1-aminocyclopropane-1-carboxylic acid]
- average height of seedlings in response to applied ACC: less than 20 millimeters
